According to patent publication US11014914B2, “Opioid receptor (MOR) agonist salt, fumarate salt crystal form I thereof and preparation method thereof” (Jiangsu Hengrui Medicine Co., Ltd., priority 2017, dated 2021):

Columns and labels:
[1] = Solubility comparison of the fumarate salt and free base in water; type: physicochemical; details: thermodynamic from solid; pure water, stirred overnight, filtered, HPLC
From the text: Test sample: compound represented by formula (II) (free base) prepared by comparative experiment 2 and product prepared by embodiment 1 (compound represented by formula (I));
The tested sample was weighted and added into pure water, then stirred by a magnetic stirrer overnight, and then filtered and diluted to a certain volume for sample injection;
HPLC chromatographic conditions: acetonitrile-0.1% aqueous trifluoroacetic acid (50:50) used as mobile phase, detection wavelength 264 nm, injection volume 10 μL, flow rate 1.0 mL/min.

[2] = Stability investigation of crystal form I (XRPD, long-term placement); type: physicochemical; details: long-term 25° C., 60% RH, dark, sealed, sampling time 5 days
Description: The crystal form I sample prepared by embodiment 2 was placed in the dark, sealed and placed flat, and the stability of the sample was investigated long-term (25° C., 60% RH), sampling time was 5 days, and XRPD was used to detect whether the crystal form changed.

CCO[C@H]1CC[C@H](NCC[C@@]2(c3ccccn3)CCOC3(CCCC3)C2)c2ccccc21.O=C(O)/C=C/C(=O)O [Compound represented by formula (I), (1S,4S)-4-ethoxy-N-(2-((R)-9-(pyridin-2-yl)-6-oxaspiro[4.5]deca-9-yl)ethyl)-1,2,3,4-tetrahydronaphthalen-1-amine fumarate salt]
solubility [1]: 31.3 mg/mL | XRPD peak pattern (crystal form change) [2]: remained unchanged

CCO[C@H]1CC[C@H](NCC[C@@]2(c3ccccn3)CCOC3(CCCC3)C2)c2ccccc21 [Free base, (1S,4S)-4-ethoxy-N-(2-((R)-9-(pyridin-2-yl)-6-oxaspiro[4.5]deca-9-yl)ethyl)-1,2,3,4-tetrahydronaphthalen-1-amine]
solubility [1]: 0.0022 mg/mL
